Laboratory results taken from paper PMC4287394 (Clinical cancer research : an official journal of the …, 2014).
“And” between values parts separate entries of the source, which are not always exact repeats. Equal entries are not always repeated.

Experiment: Phase I safety: adverse events, DLT, MTD, RP2D
Type: in vivo, human
Conditions: for Patients with DLT (grade 3 maculopapular rash): 21/28 schedule
[1] = 330mg 21/28, 7 patients, grade ≥3
[2] = 330mg 28/28, 10 patients, all grades
[3] = 330mg 28/28, 10 patients, grade ≥3
[4] = 330mg once-daily 28/28, 10 patients
[5] = 340mg 28/28, 7 patients, all grades
[6] = 340mg 28/28, 7 patients, grade ≥3
[7] = 400mg 28/28, 1 patient, all grades
[8] = 450mg 21/28, 3 patients, all grades
[9] = 450mg 21/28, 3 patients, grade ≥3
[10] = all dose levels 21 or 28/28, 60 patients, all grades
[11] = all dose levels 21 or 28/28, 60 patients, grade ≥3

## CS(=O)(=O)N1CCN(Cc2cc3nc(-c4cccc5[nH]ncc45)nc(N4CCOCC4)c3s2)CC1 [pictilisib, 2-(1H-indazol-4-yl)-6-(4-methanesulfonyl-piperazin-1-ylmethyl)-4-morpholin-4-yl-t hieno[3,2-d]pyrimidine]
[1]
  Any treatment-related adverse event, no. of patients: 2
  Decreased appetite, no. of patients with treatment-related AE: 0
  Diarrhea, no. of patients with treatment-related AE: 0
  Dysgeusia, no. of patients with treatment-related AE: 0
  Fatigue, no. of patients with treatment-related AE: 0
  Nausea, no. of patients with treatment-related AE: 0
  Rash (all rash preferred terms), no. of patients with treatment-related AE: 1
  Vomiting, no. of patients with treatment-related AE: 0
  Xeroderma, no. of patients with treatment-related AE: 0
[2]
  Any treatment-related adverse event, no. of patients: 10
  Decreased appetite, no. of patients with treatment-related AE: 6
  Diarrhea, no. of patients with treatment-related AE: 7
  Dysgeusia, no. of patients with treatment-related AE: 5
  Fatigue, no. of patients with treatment-related AE: 6
  Nausea, no. of patients with treatment-related AE: 9
  Rash (all rash preferred terms), no. of patients with treatment-related AE: 4
  Vomiting, no. of patients with treatment-related AE: 3
  Xeroderma, no. of patients with treatment-related AE: 4
[3]
  Any treatment-related adverse event, no. of patients: 2
  Decreased appetite, no. of patients with treatment-related AE: 0
  Diarrhea, no. of patients with treatment-related AE: 1
  Dysgeusia, no. of patients with treatment-related AE: 0
  Fatigue, no. of patients with treatment-related AE: 0
  Nausea, no. of patients with treatment-related AE: 0
  Rash (all rash preferred terms), no. of patients with treatment-related AE: 2
  Vomiting, no. of patients with treatment-related AE: 0
  Xeroderma, no. of patients with treatment-related AE: 1
[4]
  Patients with grade 1 or 2 rash: 2
  Patients with grade 3 rash (after the DLT-defining window): 2
330mg once-daily, 7 patients
  Patients with DLT (grade 3 maculopapular rash): 1 of 7 and 1
340mg
  Patients with grade 3 pneumonitis: 1
[5]
  Any treatment-related adverse event, no. of patients: 6
  Decreased appetite, no. of patients with treatment-related AE: 3
  Diarrhea, no. of patients with treatment-related AE: 1
  Dysgeusia, no. of patients with treatment-related AE: 2
  Fatigue, no. of patients with treatment-related AE: 3
  Nausea, no. of patients with treatment-related AE: 4
  Rash (all rash preferred terms), no. of patients with treatment-related AE: 1
  Vomiting, no. of patients with treatment-related AE: 4
  Xeroderma, no. of patients with treatment-related AE: 0
[6]
  Any treatment-related adverse event, no. of patients: 2
  Decreased appetite, no. of patients with treatment-related AE: 0
  Diarrhea, no. of patients with treatment-related AE: 0
  Dysgeusia, no. of patients with treatment-related AE: 0
  Fatigue, no. of patients with treatment-related AE: 0
  Nausea, no. of patients with treatment-related AE: 0
  Rash (all rash preferred terms), no. of patients with treatment-related AE: 0
  Vomiting, no. of patients with treatment-related AE: 0
  Xeroderma, no. of patients with treatment-related AE: 0
[7]
  Any treatment-related adverse event, no. of patients: 1
  Decreased appetite, no. of patients with treatment-related AE: 0
  Diarrhea, no. of patients with treatment-related AE: 0
  Dysgeusia, no. of patients with treatment-related AE: 0
  Fatigue, no. of patients with treatment-related AE: 1
  Nausea, no. of patients with treatment-related AE: 1
  Rash (all rash preferred terms), no. of patients with treatment-related AE: 1
  Vomiting, no. of patients with treatment-related AE: 0
  Xeroderma, no. of patients with treatment-related AE: 0
[8]
  Any treatment-related adverse event, no. of patients: 3
  Decreased appetite, no. of patients with treatment-related AE: 1
  Diarrhea, no. of patients with treatment-related AE: 0
  Dysgeusia, no. of patients with treatment-related AE: 1
  Fatigue, no. of patients with treatment-related AE: 2
  Nausea, no. of patients with treatment-related AE: 2
  Rash (all rash preferred terms), no. of patients with treatment-related AE: 3
  Vomiting, no. of patients with treatment-related AE: 2
  Xeroderma, no. of patients with treatment-related AE: 1
[9]
  Any treatment-related adverse event, no. of patients: 2
  Decreased appetite, no. of patients with treatment-related AE: 0
  Diarrhea, no. of patients with treatment-related AE: 0
  Dysgeusia, no. of patients with treatment-related AE: 0
  Fatigue, no. of patients with treatment-related AE: 0
  Nausea, no. of patients with treatment-related AE: 0
  Rash (all rash preferred terms), no. of patients with treatment-related AE: 2
  Vomiting, no. of patients with treatment-related AE: 0
  Xeroderma, no. of patients with treatment-related AE: 0
450mg once-daily 21/28
  Time of presentation of DLT rash after commencement of daily dosing: approximately 2 weeks
  Time to spontaneous resolution of DLT rash after treatment discontinuation: 2 weeks
450mg once-daily 21/28, 2 patients
  Body surface area covered by DLT maculopapular rash: 70-80%
450mg once-daily, 3 patients
  Patients with DLT (grade 3 maculopapular rash): 2 of 3 and 2
28/28 schedule (330mg, 340mg, 400mg)
  DLT on continuous schedule: no DLT was observed
All 60 patients
  Treatment-related deaths: no treatment-related deaths
[10]
  Decreased appetite, no. of patients with treatment-related AE: 14
  Fatigue, no. of patients with treatment-related AE: 21
  Nausea, no. of patients with treatment-related AE: 28
  Rash (all rash preferred terms), no. of patients with treatment-related AE: 14
  Vomiting, no. of patients with treatment-related AE: 15
  Xeroderma, no. of patients with treatment-related AE: 8
[11]
  Any treatment-related adverse event, no. of patients: 9
  Decreased appetite, no. of patients with treatment-related AE: 0
  Diarrhea, no. of patients with treatment-related AE: 1
  Dysgeusia, no. of patients with treatment-related AE: 0
  Fatigue, no. of patients with treatment-related AE: 0
  Nausea, no. of patients with treatment-related AE: 0
  Rash (all rash preferred terms), no. of patients with treatment-related AE: 5
  Vomiting, no. of patients with treatment-related AE: 0
  Xeroderma, no. of patients with treatment-related AE: 1
Continuous once-daily oral dosing
  Recommended Phase II dose (RP2D): 330 mg
Up to 330mg (21/28 schedule)
  Tolerability: well-tolerated
Whole study
  Patients with grade ≥3 hyperglycemia: 1
